In article PMC8184911, “A small molecule HIF-1α stabilizer that accelerates diabetic wound healing” (Nature Communications, 2021):

Target: T1, Von Hippel-Lindau (VHL) (Homo sapiens, UniProt P40337)
T1 construct: human recombinant VHL:ElonginB:ElonginC (VBC) complex; with ElonginB, ElonginC
Assay: fluorescence-based protein thermal shift assay of purified VBC ([…] VH298, positive control, shift ca. […] °C)
Format: binding
Details: read-out: fluorescence-based protein thermal shift assay of purified VBC (100 μM VH298, po)

T1 sequence (P40337 whole entry): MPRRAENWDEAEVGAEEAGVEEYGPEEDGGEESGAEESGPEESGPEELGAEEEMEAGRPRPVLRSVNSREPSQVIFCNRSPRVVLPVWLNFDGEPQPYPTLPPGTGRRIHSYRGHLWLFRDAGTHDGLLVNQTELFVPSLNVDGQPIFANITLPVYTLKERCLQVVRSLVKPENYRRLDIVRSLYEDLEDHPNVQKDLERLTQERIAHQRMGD
T1 sequence (Q15370 whole entry partner): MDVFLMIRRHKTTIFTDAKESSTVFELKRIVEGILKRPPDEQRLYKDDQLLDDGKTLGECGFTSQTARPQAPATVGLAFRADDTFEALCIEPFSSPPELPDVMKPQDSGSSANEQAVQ
T1 sequence (Q15369 whole entry partner): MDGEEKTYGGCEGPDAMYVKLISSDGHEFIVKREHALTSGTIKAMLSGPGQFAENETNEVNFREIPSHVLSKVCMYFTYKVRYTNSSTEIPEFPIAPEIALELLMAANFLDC

**Q.** `Cc1ncsc1-c1ccc(CNC(=O)[C@@H]2C[C@@H](O)CN2C(=O)[C@@H](NC(=O)C2(C#N)CC2)C(C)(C)C)cc1` [VH298, (2 S, 4 R)-1-((S)-2-(1-cyanocyclopropanecarboxamido)-3,3-dimethylbutanoyl)-4-hydroxy-N-(4-(4-methylthiazol-5-yl)benzyl) pyrrolidine-2-carboxamide] was tested. Which ΔTm at 100 µM did it give?
**A.** ~5 °C
